Source: patent publication US12115159B2, “Pharmaceutical composition for preventing or treating nonalcoholic fatty liver disease, containing GPR119 ligand as active ingredient” (DONG-A ST CO., LTD., priority 2018, dated 2024)

Legend:
[1] = system: ob/ob mouse with induced non-alcoholic steatohepatitis; assay: Concentration of proteins associated with inflammation and fibrosis in liver tissues (ELISA), ob/ob NASH mouse model; format: in vivo; conditions: 100 mg/kg/day mixed in special diet for 10 weeks, vs. Ob-NASH, FIG. 5
Description: (§1) A six-week-old male ob/ob mouse with leptin deficiency was fed with a special diet containing high fat, high fructose, and high cholesterol for 10 weeks, and thus was induced to develop non-alcoholic steatohepatitis. A mixed form of diet was prepared so that a daily dose of (3-(4-(3-(1-(5-ethylpyrimidin-2-yl)piperidin-4-yl)propoxy)-2,6-difluorophenyl)-5-isopropyl-1,2,4-oxadiazole (hereinafter, “compound 1”) reaches 100 mg/kg/day in the compound represented by the chemical formula 1, and supplied to the mouse from a time point of starting the supply of the special diet for 10 weeks.
To evaluate an effect on the expression of inflammation-related genes and fibrosis-related proteins in liver tissues, the liver tissues obtained from the mouse model were put into RIPA buffer (Cell Signaling) and pulverized with TissueLyser II™ (Quiagen), after which a total protein concentration was quantified with Pierce BCA Protein Assay Kit (Thermo Fisher Scientific) and a protein concentration of Mouse Ccl2 (=Mcp1; R&D Systems, MJE00) and Timp1 (R&D Systems, MTM100) in the liver tissues was quantified by using a commercially available ELISA kit, so that the results thereof are shown in FIG. 5.

[2] = system: ob/ob mouse with induced non-alcoholic steatohepatitis; assay: AST and ALT measurement in blood, ob/ob NASH mouse model; format: in vivo; conditions: 100 mg/kg/day mixed in special diet for 10 weeks, plasma, vs. Ob-NASH, FIG. 4
Description: as §1
The mouse model with induced non-alcoholic steatohepatitis was subjected to autopsy, after which plasma was separated therefrom, so as to quantify aspartate aminotransferase (AST) and alanine aminotransferase (ALT) by using an automatic blood analyzer (Konelab 20i), and the results thereof are shown in FIG. 4.

[3] = system: ob/ob mouse with induced non-alcoholic steatohepatitis; assay: Expression of genes associated with inflammation and fibrosis in liver tissues (real-time PCR), ob/ob NASH mouse model; format: in vivo; conditions: 100 mg/kg/day mixed in special diet for 10 weeks, FIG. 6
Description: as §1
To measure an expression level of inflammation-related genes and fibrosis-related genes in liver tissues, Trizol® (Invitrogen) was added to the liver tissues collected from the mouse model, after which a total RNA was extracted from the tissues according to the method provided by the manufacturer, and then cDNA was synthesized by using a reverse transcriptase. Then, a real-time polymerase chain reaction was performed in LightCycler®480 Instrument II (RocheLifeScience) equipment by using a reagent of SYBR Green I Master Mix (Roche, 04707516001), and the results thereof are shown in FIG. 6.

[4] = system: ob/ob mouse with induced non-alcoholic steatohepatitis; assay: Histological examination of liver (HE, Masson's Trichrome / Sirius stain) in ob/ob mouse model with induced non-alcoholic steatohepatitis; format: in vivo; conditions: 100 mg/kg/day mixed in special diet for 10 weeks, vs. Ob-NASH
Description: as §1
For a histological examination, the prepared mouse model with induced non-alcoholic steatohepatitis was subjected to autopsy to fix an isolated liver tissue in 10% formalin and prepare a paraffin block, thereby obtaining a 2 μm-thick tissue section. To confirm infiltration of inflammatory cells, Hematoxylin and Eosin (HE) stain was performed using an automatic staining machine (Autostainner XL, Leica), and the results thereof are shown in FIGS. 1 and 2.
Then, for evaluation of fibrosis, fibers in liver tissue were specifically stained by using Masson's Trichrome stain or Sirius Res stain, and the results thereof are shown in FIGS. 2 and 3.

[5] = system: C57BL/6J mouse with induced non-alcoholic steatohepatitis; assay: NAFLD activity score (NAS) before and after administration, C57BL/6J DIO-NASH mouse model; format: in vivo; conditions: compound in special diet for eight weeks, FIG. 12
Description: (§2) A six-week-old male C57BL/6J mouse was fed with a special diet comprising high fat, high fructose, and high cholesterol for at least 26 weeks, and thus was induced to develop non-alcoholic steatohepatitis. It was confirmed that fatty liver and inflammatory fibrosis are induced through a biopsy of liver tissues three weeks before drug supply, and mice were evenly distributed into each group based on the area of collagen stained in the liver tissues. A feed was prepared by mixing the compounds according to the present invention in a special diet and supplied for additional eight weeks. According to the diet supplied to the mice, each of the groups was classified as a control group fed with a normal diet (Normal), a positive control group in which mice with induced non-alcoholic steatohepatitis due to the special diet were not supplied with a drug (DIO-NASH), and a group in which mice with induced non-alcoholic steatohepatitis were supplied with the compound 1 in an amount of 30 mg/kg/day (L) and […] (H) (Cmpd1 (L) and Cmpd1 (H), respectively).

[6] = system: human monocytes (THP-1); assay: Effect on differentiation of human monocytes into macrophages (IL-1β secretion, ELISA); format: cell-based; conditions: THP-1 co-treated with compound during PMA (50 ng/ml) differentiation for 48 hours, then LPS (0.5 ng/ml) for four hours; FIG. 8
Description: (§3) Then, THP-1 monocytes were treated with PMA (50 ng/ml) for 48 hours to be differentiate into macrophages, while the compound 1 was co-treated, then replaced with serum-free medium, and then treated with lipopolysaccharides (LPS, 0.5 ng/ml) for four hours so as to quantity interleukin-1β (IL-1β, R&D Systems, DY201) secreted into the medium by using a commercialized ELISKA kit and evaluate an effect on the differentiation of monocytes, so that the results thereof are shown in FIG. 8.

[7] = system: C57BL/6J mouse with induced non-alcoholic steatohepatitis; assay: AST and ALT measurement in blood, C57BL/6J DIO-NASH mouse model; format: in vivo; conditions: C57BL/6J DIO-NASH_Compd1, compound in special diet for eight weeks, plasma, vs. DIO-NASH; FIG. 15
Description: as §2
Each of the mouse groups was subjected to autopsy, after which plasma was separated therefrom, so as to quantity aspartate aminotransferase (AST) and alanine aminotransferase (ALT) by using an automatic blood analyzer (Konelab 20i).

[8] = system: C57BL/6J mouse with induced non-alcoholic steatohepatitis; assay: Evaluation of fibrosis (Sirius stain, type I collagen immunostaining), C57BL/6J DIO-NASH mouse model; format: in vivo; conditions: C57BL/6J DIO-NASH_Compd1, compound in special diet for eight weeks, vs. DIO-NASH; FIGS. 13 and 14
Description: as §2
Then, for the evaluation of fibrosis, the fibers of the liver tissues were specifically stained with Sirius Res stain in the mice of each group, and a content of type I collagen in the liver tissues was measured by an imaging analysis method after immunostaining, so that the results thereof are shown in FIGS. 13 and 14.

[9] = system: C57BL/6J mouse with induced non-alcoholic steatohepatitis; assay: Histological examination (HE) and triglyceride content of liver, C57BL/6J DIO-NASH mouse model; format: in vivo; conditions: Compd1 (H) group, in special diet for eight weeks after induction, vs. DIO-NASH, FIGS. 10 and 11
Description: as §2
For a histological examination, the prepared C57BL/6J mouse model was subjected to autopsy to fix an isolated liver tissue in 10% formalin and prepare a paraffin block, thereby obtaining a 2 μm-thick tissue section. […]

[10] = system: differentiated macrophages (THP-1); assay: Effect on activation of differentiated macrophages by LPS (IL-1β secretion, ELISA); format: cell-based, human; conditions: differentiated macrophages treated with compound for 48 hours, then LPS; FIG. 9
Description: as §3
In addition, after treating the differentiated macrophages with the compound 1 for 48 hours, the secreted IL-1β was quantified by the same method as above with regard to the activation of immune cells by LPS, so as to evaluate an effect on the activation of differentiated macrophages.

[11] = system: C57BL/6J mouse with induced non-alcoholic steatohepatitis; assay: Change in gene expression in liver tissues (RNAseq), C57BL/6J DIO-NASH mouse model; format: in vivo; conditions: C57BL/6J DIO-NASH_Compd1, eight weeks after drug administration, vs. DIO-NASH, FIG. 16
Description: as §2
To analyze a change in total gene expression in liver tissues isolated from the above mouse model in eight weeks after drug administration, the isolated RNA fraction was used to generate a library by using NeoPrep (Illumina), and subjected to RNAseq profiling through NexSeq 500 (Illumina), after which bioinformatics analysis was performed and changes in major gene groups were classified for each function, so that the results thereof are shown in FIG. 16.

CCc1cnc(N2CCC(CCCOc3cc(F)c(-c4noc(C(C)C)n4)c(F)c3)CC2)nc1 [compound 1, 3-(4-(3-(1-(5-ethylpyrimidin-2-yl)piperidin-4-yl)propoxy)-2,6-difluorophenyl)-5-isopropyl-1,2,4-oxadiazole]
protein level of Ccl2 (=Mcp1) in liver tissues [1]: significantly inhibited
protein level of Timp1 in liver tissues [1]: significantly inhibited
ALT level in blood [2]: significant inhibition of increase
AST level in blood [2]: significant inhibition of increase
increase in expression of fibrosis-related genes (Tgfb1, Col1a, Timp1, Timp2, Acta2) in liver tissues [3]: significantly inhibited
increase in expression of inflammation-related genes (Ccl2, Lgals3, Tnfa) in liver tissues [3]: significantly inhibited
infiltration of inflammatory cells in liver tissues ([4]; FIGS. 1 and 2): significantly inhibited
fibrosis of liver tissues ([4]; FIGS. 2 and 3): significantly inhibited
worsening of disease by NAFLD activity score (NAS), before vs. after administration ([5]; C57BL/6J DIO-NASH, disease worsened in 50% of the DIO-NASH group): no individual was deteriorated
share of group in which the disease was ameliorated by NAFLD activity score (NAS) ([5]; C57BL/6J DIO-NASH_Compd1 group): about 50%
IL-1β secretion caused by activation of macrophages [6]: decreased in a concentration-dependent manner
concentration of ALT in blood [7]: significantly inhibited increase
concentration of AST in blood [7]: significantly inhibited increase
cross-linking formation in fibers of the liver tissues [8]: remarkable decrease
type I collagen in liver tissues [8]: significant decrease
fat deposits in liver tissues [9]: significant decrease
infiltration of inflammatory cells in liver tissues [9]: significant decrease
IL-1β secretion caused by activation of macrophages [10]: decreased in a concentration-dependent manner
expression of fibrosis markers in liver tissues [11]: remarkable decrease
expression of macrophage markers in liver tissues [11]: remarkable decrease
expression of monocyte attractants in liver tissues [11]: remarkable decrease
